The numbers were not newly measured in US11129842B2, “Methods and compositions for treating diseases related to imbalance of essential fatty acids” (BODYBIO INC., priority 2018, dated 2021), which cites them from elsewhere.

The target in one series is CB1 cannabinoid receptor (Homo sapiens, UniProt P21554).
The target in a further series is CB2 receptor (Homo sapiens, UniProt P34972).
Chain of CB2 receptor (P34972 whole entry): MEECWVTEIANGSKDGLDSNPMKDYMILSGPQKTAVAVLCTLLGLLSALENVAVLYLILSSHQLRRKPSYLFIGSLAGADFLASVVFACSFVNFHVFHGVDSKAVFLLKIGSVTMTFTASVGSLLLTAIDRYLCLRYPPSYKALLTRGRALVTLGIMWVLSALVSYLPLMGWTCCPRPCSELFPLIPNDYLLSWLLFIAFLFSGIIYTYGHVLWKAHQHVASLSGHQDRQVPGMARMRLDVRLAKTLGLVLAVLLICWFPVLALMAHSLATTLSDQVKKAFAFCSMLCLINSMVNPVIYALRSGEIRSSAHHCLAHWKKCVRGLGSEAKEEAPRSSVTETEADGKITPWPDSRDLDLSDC

Chain of CB1 cannabinoid receptor (P21554 whole entry): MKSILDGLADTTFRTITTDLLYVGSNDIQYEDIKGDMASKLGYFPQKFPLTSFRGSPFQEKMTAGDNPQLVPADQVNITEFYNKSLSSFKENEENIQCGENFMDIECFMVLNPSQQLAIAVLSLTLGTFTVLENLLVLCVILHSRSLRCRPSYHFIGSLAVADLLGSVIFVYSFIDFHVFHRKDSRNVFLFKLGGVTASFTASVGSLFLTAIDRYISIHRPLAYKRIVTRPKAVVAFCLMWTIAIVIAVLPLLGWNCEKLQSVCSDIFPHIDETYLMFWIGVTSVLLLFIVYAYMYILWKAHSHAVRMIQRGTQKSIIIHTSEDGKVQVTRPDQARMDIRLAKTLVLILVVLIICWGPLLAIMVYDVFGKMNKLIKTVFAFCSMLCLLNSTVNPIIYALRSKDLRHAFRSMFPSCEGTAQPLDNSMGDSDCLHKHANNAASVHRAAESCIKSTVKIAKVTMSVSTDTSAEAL

With `CCCCC/C=C\C/C=C\C/C=C\C/C=C\CCCCOC(CO)CO` [Noladin ether, 2-arachidonyl glyceryl ether], the Ki at CB1 cannabinoid receptor was 21.2 nM. In addition, the “binding to the CB2 receptor” value at CB2 receptor is recorded as “only weakly”.

In general, Ki refers to the dissociation constant of the complex between target and ligand, obtained from inhibition or displacement.
